Tests used:
Format in all cases: in vivo
[1] = system: larvae of the beet army worm (Spodoptera exigua); assay: Spodoptera exigua test (cabbage leaf dip, larval mortality); conditions: mortality after 6 days; rate of application 100 ppm
Procedure: (§1) Solvent: 7 parts by weight of dimethylformamide
(§2) Emulsifier: 2 parts by weight of alkylaryl polyglycolether
(§3) To produce a suitable preparation of active compound, 1 part by weight of active compound is mixed with the stated amount of solvent and emulsifier, and the concentrate is diluted with emulsifier-containing water to the desired concentration. Cabbage leaves (Brassica oleracea) are treated by being dipped into the preparation of the active compound at the desired concentration and are infested with larvae of the beet army worm (Spodoptera exigua) as long as the leaves are still moist. After a period of time of 6 days, the mortality is determined. 100% means that all the caterpillars have been killed; 0% means that none of the caterpillars have been killed.

[2] = system: larvae of the diamond black moth Plutella xylostella; assay: Plutella xylostella test (cabbage leaf dip, larval mortality); conditions: mortality after 4 days
Procedure: as §1, §2
as §3, with “diamond black moth Plutella xylostella” for “beet army worm (Spodoptera exigua)”, “4” for “6”

[3] = system: larvae of the fall army worm (Spodoptera frugiperda); assay: Spodoptera frugiperda test (cabbage leaf dip, larval mortality); conditions: mortality after 4 days
Procedure: as §1, §2
as §3, with “fall” for “beet”, “frugiperda)” for “exigua)”, “4” for “6”

Structure (SMILES) | Efficacy (%) [1] [%] | Efficacy (%) ([3]; rate of application 100 ppm) | Efficacy (%) ([3]; rate of application 20 ppm) | further results
CCCOC(=O)NCCCN(C)C.Cl [propamocarb, propyl[3-(dimethylamino)propyl]carbamate hydrochloride] | 0 | 0 | – | Efficacy (%) ([2]; rate of application 200 ppm): 25%; Efficacy (%) ([3]; rate of application 200 ppm): 0%
N#C/N=C1\SCCN1Cc1ccc(Cl)nc1 [thiacloprid] | – | – | – | Efficacy (%) ([2]; rate of application 20 ppm): 20%
CN/C(=N\[N+](=O)[O-])NCc1cnc(Cl)s1 [clothianidin] | 45 | – | 0 | –
CN1COCN(Cc2cnc(Cl)s2)/C1=N\[N+](=O)[O-] [thiamethoxam] | – | 0 | – | –
O=[N+]([O-])NC1=NCCN1Cc1ccc(Cl)nc1 [imidacloprid] | – | – | 0 | –

From patent US9161541B2, “Pesticide composition comprising propamocarb-hydrochloride and an insecticide active substance” (priority 2006, dated 2015)
